From article PMC6423499, “SPR-Measured Dissociation Kinetics of PROTAC Ternary Complexes Influence Target Degradation Rate” (ACS Chemical Biology, 2019)
Read-outs that look alike come from different tables or passages of the source. Marks after values point to notes of the source that are not given here.

Key:
[1] = molecular target: T1, VHL + Brd2^BD1 (Homo sapiens, UniProt P25440+P40337); assay: SPR ternary binding of PROTAC:Brd2^BD1 complex to immobilized VHL
T1 construct: VHL (54-213); Brd2BD1 (71-194); His6 with TEV cleavage site (N, cleaved yes); made in house; host or cells: E. coli BL21(DE3) (VCB)

[2] = molecular target: VHL + Brd4^BD2; settings: cited from earlier work; for Kd: ternary + Brd4^BD2, ITC at 298.15 K; for ΔΔG (ITC) / α (ITC): ternary + Brd4^BD2, ITC
[3] = molecular target: T2, VHL + Brd3^BD2 (Homo sapiens, UniProt P40337+Q15059); assay: SPR ternary binding of PROTAC:Brd3^BD2 complex to immobilized VHL
T2 construct: VHL (54-213); Brd3BD2 (306-416); His6 with TEV cleavage site (N, cleaved yes); made in house; host or cells: E. coli BL21(DE3) (VCB)

[4] = molecular target: T3, VHL + Brd4^BD1 (Homo sapiens, UniProt O60885+P40337); assay: SPR ternary binding of PROTAC:Brd4^BD1 complex to immobilized VHL
T3 construct: VHL (54-213); Brd4BD1 (44-168); His6 with TEV cleavage site (N, cleaved yes); made in house; host or cells: E. coli BL21(DE3) (VCB)

[5] = molecular target: Brd4^BD2 (Homo sapiens, UniProt O60885); assay: Reversed-format SPR, PROTAC binary binding to immobilized Brd4^BD2; settings: qualitative, Figures S4 and S6
[6] = molecular target: T4, VHL + Brd4^BD2 (Homo sapiens, UniProt O60885+P40337); assay: SPR ternary binding of PROTAC:Brd4^BD2 complex to immobilized VHL; settings: for α (cooperativity, KD^binary/KD^ternary) / ΔΔG (ΔG^ternary – ΔG^binary): SPR; for Kd / koff / kon / t1/2 (dissociative half-life, ln2/koff): ternary (+ Brd4^BD2), 298.15 K; for dissociation kinetics faster than the VHL/MZ1/Brd4^BD2 complex: ternary complex with Brd4^BD2
T4 construct: VHL (54-213); Brd4BD2 (333-460); His6 with TEV cleavage site (N, cleaved yes); made in house; host or cells: E. coli BL21(DE3) (VCB)

[7] = molecular target: T5, VHL + Brd3BD2E344G (Homo sapiens, UniProt P40337+Q15059, E344G); assay: SPR ternary binding of PROTAC:Brd3^BD2 E344G point mutant complex to immobilized VHL
T5 construct: VHL (54-213); Brd3BD2 (306-416); His6 with TEV cleavage site (N, cleaved yes); made in house; host or cells: E. coli BL21(DE3) (VCB)

[8] = molecular target: T6, VHL + Brd3^BD1 (Homo sapiens, UniProt P40337+Q15059); assay: SPR ternary binding of PROTAC:Brd3^BD1 complex to immobilized VHL
T6 construct: VHL (54-213); Brd3BD1 (24-144); His6 with TEV cleavage site (N, cleaved yes); made in house; host or cells: E. coli BL21(DE3) (VCB)

[9] = molecular target: T7, VHL + Brd2^BD2 (Homo sapiens, UniProt P25440+P40337); assay: SPR ternary binding of PROTAC:Brd2^BD2 complex to immobilized VHL
T7 construct: VHL (54-213); Brd2BD2 (344-455); His6 with TEV cleavage site (N, cleaved yes); made in house; host or cells: E. coli BL21(DE3) (VCB)

[10] = molecular target: T8, VHL (Homo sapiens, UniProt P40337); assay: SPR binary binding of PROTAC to immobilized VHL; settings: binary (PROTAC alone), 285.15 K
T8 construct: VHL (54-213); His6 with TEV cleavage site (N, cleaved yes); made in house; host or cells: E. coli BL21(DE3)

[11] = molecular target: T9, VHL + Brd4BD2G386E (Homo sapiens, UniProt O60885+P40337, G386E); assay: SPR ternary binding of PROTAC:Brd4^BD2 G386E point mutant complex to immobilized VHL
T9 construct: VHL (54-213); Brd4BD2 (333-460); His6 with TEV cleavage site (N, cleaved yes); made in house; host or cells: E. coli BL21(DE3) (VCB)

[12] = molecular target: VHL; settings: binary, ITC at 298.15 K, cited from earlier work
[13] = molecular target: T10, VHL + Brd2BD2G382E (Homo sapiens, UniProt P25440+P40337, G382E); assay: SPR ternary binding of PROTAC:Brd2^BD2 G382E point mutant complex to immobilized VHL
T10 construct: VHL (54-213); Brd2BD2 (344-455); His6 with TEV cleavage site (N, cleaved yes); made in house; host or cells: E. coli BL21(DE3) (VCB)

[14] = test system: VHL + Brd2^BD1; set-up: method as in PMID 28288108; settings: ternary + Brd2^BD1, ITC, ref [2]; cited from earlier work
[15] = test system: VHL + Brd4^BD1; set-up: method as in PMID 28288108; settings: ternary + Brd4^BD1, ITC, ref [2]; cited from earlier work
[16] = test system: VHL + Brd3^BD1; set-up: method as in PMID 28288108; settings: ternary + Brd3^BD1, ITC, ref [2]; cited from earlier work
[17] = test system: VHL + Brd3^BD2; set-up: method as in PMID 28288108; settings: ternary + Brd3^BD2, ITC, ref [2]; cited from earlier work
[18] = test system: VHL + Brd2^BD2; set-up: method as in PMID 28288108; settings: ternary + Brd2^BD2, ITC, ref [2]; cited from earlier work
[19] = ternary + Brd4^BD2, kinetic fit
[20] = ternary + Brd4^BD2, steady-state affinity fit (SSA)
[21] = steady-state affinity fit (SSA)

Row | binary target affinity (for Brd4) [5] | α (cooperativity, KD^binary/KD^ternary) [6, 19] | Kd ([6]; single-cycle, kinetic fit) [nM] | Kd ([10]; multicycle, kinetic fit) [nM] | ΔΔG (ΔG^ternary – ΔG^binary) [6, 19] | ΔΔG (ΔG^ternary – ΔG^binary) [6, 20] | α (cooperativity, KD^binary/KD^ternary) [6, 20] | koff ([6]; single-cycle, kinetic fit) [s⁻¹] | kon ([6]; single-cycle, kinetic fit) [M^–1 s^–1 × 10^5] | t1/2 (dissociative half-life, ln2/koff) ([6]; single-cycle, kinetic fit) [s] | Kd [6, 21] [nM] | dissociation kinetics faster than the VHL/MZ1/Brd4^BD2 complex [6] [fold] | Kd [10, 21] [nM] | Structure (SMILES) | Kd ([2]; ref [10]) [nM] | ΔΔG (ITC) ([2]; ref [10]) | α (ITC) ([2]; ref [10]) | Kd ([12]; ref [10]) [nM] | further results
1 | weaker | 4.7 | 24 | 110 |  |  |  |  |  |  |  |  |  | CC(=O)N[C@H](C(=O)N1C[C@H](O)C[C@H]1C(=O)NCc1ccc(-c2scnc2C)cc1)C(C)(C)SCCCCCCNC(=O)C[C@@H]1N=C(c2ccc(Cl)cc2)c2c(sc(C)c2C)-n2c(C)nnc21 [AT1] |  |  |  |  | ΔΔG (ΔG^ternary – ΔG^binary) [1]: +0.9 kcal/mol; α (cooperativity, KD^binary/KD^ternary) [1]: 0.3; Kd ([2]; ref [2]): 46 nM; ΔΔG (ΔG^ternary – ΔG^binary) [3]: +0.4 kcal/mol; α (cooperativity, KD^binary/KD^ternary) [3]: 0.7; ΔΔG (ΔG^ternary – ΔG^binary) [4]: +1.1 kcal/mol; α (cooperativity, KD^binary/KD^ternary) [4]: 0.2; α (cooperativity, KD^binary/KD^ternary) [7]: 3.4; ΔΔG (ΔG^ternary – ΔG^binary) [8]: +0.2 kcal/mol; α (cooperativity, KD^binary/KD^ternary) [8]: 0.8; α (cooperativity, KD^binary/KD^ternary) ([9]; SPR, ternary + Brd2^BD2): 4.1; Kd ([9]; ternary (+ Brd2^BD2), 298.15 K, single-cycle, kinetic fit): 27 nM; ΔΔG (ΔG^ternary – ΔG^binary) [11]: +0.2 kcal/mol; α (cooperativity, KD^binary/KD^ternary) [11]: 0.8; Kd ([12]; ref [2]): 335 nM; ΔΔG (ΔG^ternary – ΔG^binary) [13]: +0.3 kcal/mol; α (cooperativity, KD^binary/KD^ternary) [13]: 0.7
2 |  |  |  |  |  |  |  |  |  |  |  |  |  | Cc1ncsc1-c1ccc(CNC(=O)[C@@H]2C[C@@H](O)CN2C(=O)[C@@H](NC(=O)COCCOCCOCCNC(=O)C[C@@H]2N=C(c3ccc(Cl)cc3)c3c(sc(C)c3C)-n3c(C)nnc32)C(C)(C)C)cc1 [MZ1] |  |  |  |  | ΔΔG (ITC) [14]: –0.6 ^d kcal/mol; α (ITC) [14]: 2.9 ^d; ΔΔG (ITC) [15]: –0.5 ^d kcal/mol; α (ITC) [15]: 2.3 ^d; ΔΔG (ITC) [16]: –0.8 ^d kcal/mol; α (ITC) [16]: 3.5 ^d; ΔΔG (ITC) [17]: –1.5 ^d kcal/mol; α (ITC) [17]: 10.7 ^d; ΔΔG (ITC) [18]: –0.5 ^d kcal/mol; α (ITC) [18]: 2.3 ^d
3 | high | 0.4 | 185 | 69 | +0.7 kcal/mol | +0.5 kcal/mol | 0.5 | 0.47 | 27 | 1 | 134 | > 80 | 188 | CC(=O)N1c2ccc(-c3ccc(C(=O)NCCOCCOCCOCCOCC(=O)N[C@H](C(=O)N4C[C@H](O)C[C@H]4C(=O)NCc4ccc(-c5scnc5C)cc4)C(C)(C)C)cc3)cc2[C@H](Nc2ccc(Cl)cc2)C[C@@H]1C [MZP55] | 183 | +0.3 ^e kcal/mol | 0.6 ^e | 109 | ΔΔG (ITC) ([2]; ref [10], listed as MZP 55): +0.3 kcal/mol; α (ITC) ([2]; ref [10], listed as MZP 55): 0.6; koff ([10]; multicycle, kinetic fit): 0.015 s⁻¹; kon ([10]; multicycle, kinetic fit): 2.7 M^–1 s^–1 × 10^5; t1/2 (dissociative half-life, ln2/koff) ([10]; multicycle, kinetic fit): 48 s
4 | high | 0.2 | 465 |  | +1.0 kcal/mol | +0.6 kcal/mol | 0.4 | 1 | 30 | 1 | 248 | > 80 | 104 | CC(=O)N1c2ccc(-c3ccc(C(=O)NCCOCCOCC(=O)N[C@H](C(=O)N4C[C@H](O)C[C@H]4C(=O)NCc4ccc(-c5scnc5C)cc4)C(C)(C)C)cc3)cc2[C@H](Nc2ccc(Cl)cc2)C[C@@H]1C [MZP61] | 781 | +1.1 ^e kcal/mol | 0.1 ^e | 116 | ΔΔG (ITC) ([2]; ref [10], listed as MZP 61): +1.1 kcal/mol
